In patent US20180344758A1, “Method of Treating Cancer with cGAMP or cGAsMP” (LIPOGEN LLC, priority 2014, published 2018):

How the values were obtained:
[1] = system: IFN-β; assay: IFN-β ELISA of THP1 culture supernatant; conditions: for IFN-β levels in the culture supernatant by ELISA, response: THP1 cells (FIG. 3B); for IFN-β production: THP1 cells (FIGS. 13A-B)
From the text: (§1) To confirm that cGAMP can induce the expression of IFN-β, we stimulated human monocytes THP1 blue cells with cGAMP and other three cyclic dinucleotides added to the culture media.

[2] = system: IFN-β reporter; assay: IFN-β reporter assay in THP1 blue cells; conditions: for inducing the expression of IFN-β reporter: THP1 blue cells, cyclic dinucleotides added to the culture media (FIG. 3A)
From the text: as §1

[3] = system: leukemia cell line SR; assay: MTT assay, SR; type: cell-based, human
[4] = system: neuronal cancer cell line SF539; assay: MTT assay, SF539
Method: (§2) MTT solution: 5 mg/mL Thiazolyl Blue Tetrazolium Bromide (MTT) in PBS. The solution was filter sterilized after adding MTT and stored at −20° C.; MTT solvent: 4 mM HCl, 0.1% Nondet P-40 (NP40) in isopropanol. cGAMP or cGAsMP solutions: 10-30 mg/ml in PBS, filter sterilized using a 0.2 μm filter. • B. MTT Assay for Attaching Cancer Cell Lines SF539, U251, A498, and ACHN
On day one, one T-25 flask was trypsinized and 5 ml of complete media was added to the cells. The cells and media were centrifuged in a sterile 15 ml falcon tube at 300×g rcf in the swinging bucket rotor for 5 min. […] Cells were counted and recorded per ml. Cells were diluted (cv=cv) to 75,000 cells per ml with complete RPMI media. 100 μl of cells (7500 total cells) were added into each well of a 96 well plate and incubated overnight. 24 hours later, 100 μl of medium or cGAMP or cGAsMP solutions were added to each well. On the fifth day, 20 μl of 5 mg/ml MTT were added to each well. One set of wells with MTT but no cells served as a control. All steps were done aseptically. The wells were incubated for 3.5 hours at 37° C. in a CO2 incubator. Media was carefully removed, taking care not to disturb the cells. No PBS rinse was performed. 150 μl MTT solvent was added. The plate was covered with foil and cells agitated on orbital shaker for 15 min. The absorbance was measured at 590 nm using a plate reader. Each assay was repeated five times. • C.

[5] = system: genome-wide gene expression; assay: Microarray analysis of gene expression in THP1 cells; conditions: 20 μg/ml, 4 hours and 8 hours post treatment (FIG. 5)
[6] = system: NF-κB; assay: NF-κB reporter assays
[7] = system: IFN-β; conditions: intravenous (i.v.) injection, 100 μg/mice, sera ELISA (FIG. 3C)
From the text: FIG. 3C is an IFN-β ELISA of sera from mice injected with cGAMP.

[8] = system: renal cancer cell line A498; assay: NCI60 antitumor screen, A498; conditions: single dose of 10 μM
[9] = system: leukemia cell line CCRF-CEM; assay: MTT assay, CCRF-CEM; type: cell-based, human; conditions: control leukemia cell line (FIG. 8)
[10] = system: CNS cancer cell line SF539; assay: NCI60 antitumor screen, SF539; conditions: single dose of 10 μM
[11] = system: renal cancer cell line A498; assay: MTT assay, A498; conditions: FIG. 6B
Method: as §2
On day one, one T-25 flask was trypsinized and 5 ml of complete media was added to the cells. The cells and media were centrifuged in a sterile 15 ml falcon tube at 300×g rcf in the swinging bucket rotor for 5 min. […] Cells were counted and recorded per ml. Cells were diluted (cv=cv) to 75,000 cells per ml with complete RPMI media. 100 μl of cells (7500 total cells) were added into each well of a 96 well plate and incubated overnight. 24 hours later, 100 μl of medium or cGAMP or cGAsMP solutions were added to each well. On the fifth day, 20 μl of 5 mg/ml MTT were added to each well. One set of wells with MTT but no cells served as a control. All steps were done aseptically. The wells were incubated for 3.5 hours at 37° C. in a CO2 incubator. Media was carefully removed, taking care not to disturb the cells. No PBS rinse was performed. 150 μl MTT solvent was added. The plate was covered with foil and cells agitated on orbital shaker for 15 min. The absorbance was measured at 590 nm using a plate reader. […]

[12] = system: leukemia cell line SR; assay: NCI60 antitumor screen, SR; conditions: single dose of 10 μM
[13] = system: cytokines and chemokines; assay: Multiplex cytokine assays in THP1 cells
[14] = system: IFN-β in control cell lines; assay: IFN-β induction in control cell lines; conditions: two control cell lines tested (FIG. 7)
[15] = system: IFN-β in CNS cancer cell line SF539; assay: IFN-β induction in SF539; conditions: FIG. 7B
[16] = system: MMTV-BALB-neuT mouse mammary tumors; assay: MMTV-BALB-neuT spontaneous breast cancer model; conditions: 0.1 mg per mouse intra-tumor once a day for three days; day 4 post-treatment; p value of 0.0009 (FIG. 15D)
Method: Comparisons were made between vehicle (veh.) and cGAMP treatment. The tumor growth was monitored for 4 days and growth rate was examined using serial caliper measurements. The tumor volume was calculated using the equation (a×b^2)/2 where “a” and “b” are length and width of the tumor, respectively. At the completion of the experiments, tumors were excised and statistical significance of differences in tumor volume was analyzed.

[17] = system: IFN-β in renal cancer cell line A498; assay: IFN-β induction in A498; conditions: FIG. 7A

Compound: Nc1nc2c(ncn2[C@@H]2O[C@@H]3COP(=O)(O)O[C@H]4[C@@H](O)[C@H](n5cnc6c(N)ncnc65)O[C@@H]4COP(=O)(O)O[C@H]3[C@H]2O)c(=O)[nH]1 [3′,5′ cGAMP, reference compound]
- IFN-β levels in the culture supernatant by ELISA, response [1]: much weaker
- inducing the expression of IFN-β reporter [2]: lower activity

Compound: Nc1nc2c(ncn2C2OC3COP(=O)(O)OC4C(COP(O)(=S)OC2C3O)OC(n2cnc3c(N)ncnc32)C4O)c(=O)[nH]1 (stereo not shown) [cGAsMP, 2′5′-cGAsMP]
- IFN-β production [1]: can induce
- IFN-β levels relative to cGAMP ([1]; THP1 cells, 5 and 25 μg/ml, ELISA (FIG. 13A)): 5-10 times
- antitumor activity, MTT ([3]; FIG. 14B): have antitumor activity
- impact on cell viability compared with cGAMP ([3]; FIG. 14B): generally a bigger impact on cell viability at lower concentrations
- antitumor activity, MTT ([4]; FIG. 14A): have antitumor activity
- impact on cell viability compared with cGAMP ([4]; FIG. 14A): generally a bigger impact on cell viability at lower concentrations
- potency in inducing IFN-β reporter gene expression, compared ([2]; THP1 cells, 0.2 to 25 μg/ml (FIG. 13B)): more potent than cGAMP

Compound: Nc1nc2c(ncn2[C@@H]2O[C@@H]3COP(=O)(O)O[C@H]4[C@@H](O)[C@H](n5cnc6c(N)ncnc65)O[C@@H]4COP(=O)(O)O[C@@H]2[C@@H]3O)c(=O)[nH]1 [cGAMP, 2′,5′ cGAMP]
- number of genes up-regulated [5]: over 200 genes
- activation of NF-κB [6]: stimulate the activation of NF-κB
- IFN-β levels in the culture supernatant by ELISA, response [1]: rapid responses
- IFN-β production [1]: can induce
- time at which induction of IFN-β peaked ([1]; THP1 cells, ELISA (FIG. 3B)): 8-10 hours post stimulation
- induction of IFN-β in mice [7]: rapid responses
- growth inhibition [8]: effectively inhibited the growth
- response of cell line to treatment, MTT ([3]; FIG. 8A (cGAMP), FIG. 8B (IFN-β)): responds strongly
- antitumor activity, MTT ([3]; FIG. 14B): have antitumor activity
- response of cell line to treatment, MTT [9]: did not respond
- growth inhibition [10]: effectively inhibited the growth
- growth suppression, MTT [11]: suppresses the growth
- growth suppression, MTT ([4]; FIG. 6A): suppresses the growth
- antitumor activity, MTT ([4]; FIG. 14A): have antitumor activity
- growth inhibition [12]: effectively inhibited the growth
- expression of IL-1β ([13]; THP1 cell): does not up-regulate
- expression of IL-8, TNF-α, GROα, IP-10, MCP-1, MCP-2, and RANTES ([13]; THP1 cell (FIG. 4)): up-regulation
- induction of IFN-β [14]: quite low
- induction of IFN-β [15]: induces IFN-β
- tumor growth and tumor size [16]: effective for both reducing tumor growth and reducing tumor size
- induction of IFN-β [17]: induces IFN-β
- inducing the expression of IFN-β reporter [2]: very potent
